Read-outs that look alike come from different tables or passages of the source.
Tests used:
fetal bovine serum = assay: Binding to fetal bovine serum (plasma protein binding), centrifugal filter device, HPLC; assay type: in vitro ADME; conditions: fetal bovine serum
Experimental: (§1) Semi-automatic high-throughput determination of plasma protein binding using a 96-well plate filtrate assembly and fast liquid chromatography—tandem mass spectrometry. […] Stock solutions were prepared in DMSO at 100× higher concentrations. A 5% w/v solution of fetal bovine serum in phosphate buffered saline was prepared. An aliquot (10 μL of the stock solution was added to 990 μL of the PBS solution containing 5% fetal bovine serum in a glass tube which was then incubated in a shaking water bath at 37° C. for 30 min. 500 μL of the solution was then transferred to a centrifugal filter device (Amicon Ultra 0.5 ml # UFC503096) and centrifuged at 14 000g, 15 min. After this time, the filter units were removed and placed (upside down) in a collecting tube containing 477 μL, of PBS. The latter was centrifuged at 2000g, 2 min to obtain the retentate. […] J.

[1] = as above; assay type: in vitro ADME; conditions: bovine, 5% w/v fetal bovine serum in phosphate buffered saline; for fraction unbound at 30 min, 1 µM / fraction unbound at 30 min, 4 µM / fraction unbound at 30 min, 10 µM / fraction unbound at 30 min, 25 µM: 5% fetal bovine serum in PBS
Experimental: as §1

[2] = read-out: % Bound Average (converted)
[3] = read-out: % Bound Run 1 (converted)
[4] = read-out: % Bound Run 2 (converted)
[5] = read-out: % Bound Run 3 (converted)

CCN(CC)Cc1cn(CC=C(C)C)c2ccc(-c3cccc(C)c3)cc12 [Compound J38G, N-ethyl-N-((1-(3-methylbut-2-enyl)-5-m-tolyl-1H-indol-3-yl)methyl)ethanamine]
binding capacity compared with cysmethynil (fetal bovine serum): lower binding capacities than cysmethynil
fraction unbound at 30 min, 1 µM [1, 2]: 0.776
fraction unbound at 30 min, 1 µM [1, 3]: 0.747
fraction unbound at 30 min, 1 µM [1, 4]: 0.845
fraction unbound at 30 min, 1 µM [1, 5]: 0.737
fraction unbound at 30 min, 4 µM [1, 2]: 0.638
fraction unbound at 30 min, 4 µM [1, 3]: 0.616
fraction unbound at 30 min, 4 µM [1, 4]: 0.676
fraction unbound at 30 min, 4 µM [1, 5]: 0.621
fraction unbound at 30 min, 10 µM [1, 2]: 0.765
fraction unbound at 30 min, 10 µM [1, 3]: 0.697
fraction unbound at 30 min, 10 µM [1, 4]: 0.783
fraction unbound at 30 min, 10 µM [1, 5]: 0.815
fraction unbound at 30 min, 25 µM [1, 2]: 0.737
fraction unbound at 30 min, 25 µM [1, 3]: 0.725
fraction unbound at 30 min, 25 µM [1, 4]: 0.792
fraction unbound at 30 min, 25 µM [1, 5]: 0.693
fraction unbound at 30 min ([1]; all conc (1, 4, 10, 25 uM), read-out: % Bound Average, all conc (converted)): 0.729

— patent publication US8742100B2, “Small molecule inhibitors of isoprenylcysteine carboxyl methyltransferase with potential anticancer activity” (National University of Singapore, priority 2009, dated 2014)
